According to patent EP0487095B1, “Pyridyl derivatives, medicines containing these compounds and processes for their preparation” (Dr. Karl Thomae GmbH, priority 1990, dated 1992):

Columns and labels:
[1] = target: T1, Thromboxan (Homo sapiens, UniProt P21731); experiment: Thromboxane-antagonistic effect (displacement of 3H-labelled ligand from platelet suspension); format: binding; conditions: 60 min at room temperature, read-out: Thromboxanantagonistische Wirkung IC₅₀
T1 construct: Aliquote der erhaltenen Plättchensuspension werden mit der Testsubstanz, dem Liganden (3H-markiert) und einem Marker (14C-markiert) 60 Minuten bei Raumtemperatur inkubiert; endogenous in cells; host or cells: gel-filtered human platelets from venous blood
T1 sequence (P21731 1-343): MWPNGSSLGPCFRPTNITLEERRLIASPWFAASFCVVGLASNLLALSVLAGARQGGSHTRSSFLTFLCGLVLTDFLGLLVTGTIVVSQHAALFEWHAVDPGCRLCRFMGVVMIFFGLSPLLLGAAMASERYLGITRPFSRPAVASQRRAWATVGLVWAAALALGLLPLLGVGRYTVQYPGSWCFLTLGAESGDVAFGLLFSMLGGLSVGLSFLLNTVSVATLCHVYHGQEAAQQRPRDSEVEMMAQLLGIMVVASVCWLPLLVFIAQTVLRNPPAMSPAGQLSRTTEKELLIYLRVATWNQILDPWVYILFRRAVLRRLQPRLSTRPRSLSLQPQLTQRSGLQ
Procedure: 2. Thromboxanantagonistische Wirkung
Venöses Humanblut wird mit 13 mM Na3-Citrat antikoaguliert und 10 Minuten bei 170 x g zentrifugiert. Das überstehende plättchenreiche Plasma wird zur Entfernung der Plasmaproteine über eine Sepharose-2B-Säule gegeben. Aliquote der erhaltenen Plättchensuspension werden mit der Testsubstanz, dem Liganden (3H-markiert) und einem Marker (14C-markiert) 60 Minuten bei Raumtemperatur inkubiert und danach 20 Sekunden bei 10 000 x g abzentrifugiert. Der Überstand wird abgezogen und das Pellet in NaOH gelöst. Die 3H-Aktivität im Überstand entspricht dem freien Liganden, 14C ergibt die Konzentration des Markers. 3H im Pellet entspricht dem gebundenen Liganden, 14C wird zur Korrektur für Ligand im Extrazellulärraum verwendet. Aus den Bindungswerten für verschiedene Konzentrationen der Testsubstanz wird nach Iteration die Verdrängungskurve ermittelt und die IC₅₀ bestimmt.

[2] = target: T2, Thromboxansynthetase (Homo sapiens, UniProt P24557); experiment: Inhibition of thromboxane synthetase (TXB2 formation from 14C-arachidonic acid in platelet suspension); format: cell-based; conditions: 10 min preincubation at room temperature, read-out: Hemmung der Thromboxansynthetase IC₅₀
T2 construct: Aliquots der erhaltenen Plättchensuspension werden mit der Testsubstanz bzw; Lösungsmittel als Kontrolle 10 Minuten bei Raumtemperatur inkubiert; endogenous in cells; host or cells: gel-filtered human platelets from venous blood
T2 sequence (P24557 1-533): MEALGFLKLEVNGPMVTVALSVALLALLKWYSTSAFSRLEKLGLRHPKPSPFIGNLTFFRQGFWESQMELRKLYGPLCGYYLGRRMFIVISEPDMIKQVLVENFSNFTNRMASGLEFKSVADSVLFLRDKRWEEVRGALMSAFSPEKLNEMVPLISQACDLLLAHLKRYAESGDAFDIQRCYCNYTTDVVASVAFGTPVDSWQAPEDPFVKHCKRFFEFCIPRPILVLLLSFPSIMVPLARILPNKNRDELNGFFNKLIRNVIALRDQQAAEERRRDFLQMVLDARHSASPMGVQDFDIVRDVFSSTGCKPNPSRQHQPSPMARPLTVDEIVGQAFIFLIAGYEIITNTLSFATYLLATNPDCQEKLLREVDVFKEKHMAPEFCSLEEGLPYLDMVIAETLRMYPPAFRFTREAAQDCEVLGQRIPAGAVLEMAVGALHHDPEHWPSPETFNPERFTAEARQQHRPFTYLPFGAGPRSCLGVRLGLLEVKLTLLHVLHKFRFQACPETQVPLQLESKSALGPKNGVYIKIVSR
Procedure: 3. Bestimmung der Hemmwirkung auf die Thromboxansynthetase
Venöses Humanblut wird mit 13 mM Na3-Citrat antikoaguliert und 10 Minuten bei 170 x g zentrifugiert. Das überstehende plättchenreiche Plasma wird zur Entfernung der Plasmaproteine über eine Sepharose-2B-Säule gegeben. Aliquots der erhaltenen Plättchensuspension werden mit der Testsubstanz bzw. Lösungsmittel als Kontrolle 10 Minuten bei Raumtemperatur inkubiert und nach Zugabe 14C-markierter Arachidonsäure die Inkubation weitere 10 Minuten fortgesetzt. Nach Abstoppen mit 50 µl Zitronensäure wird 3 x mit 500 µl Essigester extrahiert und die vereinigten Extrakte mit Stickstoff abgeblasen. Der Rückstand wird in Essigester aufgenommen, auf DC-Folie aufgetragen und mit Chloroform:Methanol:Eisessig:Wasser (90:8:1:0,8, v/v/v/v) getrennt. Die getrockneten DC-Folien werden 3 Tage auf Röntgenfilm gelegt, die Autoradiogramme entwickelt und mit ihrer Hilfe die aktiven Zonen auf der Folie markiert. Nach Ausschneiden wird die Aktivität im Szintillationszähler bestimmt und die Hemmung der TXB2-Bildung berechnet. Die IC₅₀ wird durch lineare Interpolation bestimmt.

[3] = test system: Thrombozytenaggregation; experiment: Collagen-induced platelet aggregation (Born and Cross) in platelet-rich plasma; format: cell-based; conditions: Homo sapiens; platelet-rich plasma of healthy subjects, 10 min preincubation at 37°C, 50% change of optical density; read-out: Hemmung der collagen-induzierten Aggregation EC₅₀
Description: 1. Antithrombotische Wirkung
Die Thrombozytenaggregation wird nach der Methode von Born und Cross (J. Physiol. 170, 397 (1964)) in plättchenreichem Plasma gesunder Versuchspersonen gemessen. Zur Gerinnungshemmung wird das Blut mit Natriumcitrat 3,14 % im Volumenverhältnis 1:10 versetzt.
Collagen-induzierte Aggregation
Der Verlauf der Abnahme der optischen Dichte der Plättchensuspension wird nach Zugabe der aggregationsauslösenden Substanz photometrisch gemessen und registriert. Aus dem Neigungswinkel der Dichtekurve wird auf die Aggregationsgeschwindigkeit geschlossen. Der Punkt der Kurve, bei dem die größte Lichtdurchlässigkeit vorliegt, dient zur Berechnung der "optical density".
Die Collagen-Menge wird möglichst gering gewählt, aber doch so, daß sich eine irreversibel verlaufende Reaktionskurve ergibt. Verwendet wird das handelsübliche Collagen der Firma Hormonchemie, München. Vor der Collagen-Zugabe wird das Plasma jeweils 10 Minuten mit der Substanz bei 37°C inkubiert.
Aus den erhaltenen Meßzahlen wird graphisch eine EC₅₀ bestimmt, die sich auf eine 50%ige Änderung der "optical density" im Sinne einer Aggregationshemmung bezieht.

Row | Structure (SMILES) | IC50 [1] [nM] | IC50 [2] [nM] | EC50 [3] [nM]
1 | O=C(O)CCC/C=C(/c1cccnc1)c1cccc(NC(=S)Nc2ccc(Cl)cc2)c1 [C, 5E-6-[3-(3-(4-Chlorphenyl)-thioureido)-phenyl]-6-(3-pyridyl)-hex-5-ensäure] | 12 | 32 | 800
2 | O=C(O)CCCC=C(c1ccc(NC(=O)C2CC2c2ccc(Cl)cc2)cc1)c1cccnc1 (single isomer, unassigned; (-)) [A, (-)-5E-6-[4-(Z-2-(4-Chlorphenyl)-cyclopropyl-1-carboxamido)-phenyl]-6-(3-pyridyl)-hex-5-ensäure] | 4 | 4 | 500
3 | O=C(O)CCC/C=C(/c1cccnc1)c1cccc(NC(=O)CCc2ccc(Cl)cc2)c1 [B, 5E-6-[3-(3-(4-Chlorphenyl)-propionylamino)-phenyl]-6-(3-pyridyl)-hex-5-ensäure] | 8 | 4 | 2200
4 | CN(C(=S)Nc1ccc(Cl)cc1Cl)c1cccc(/C(=C\CCCC(=O)O)c2cccnc2)c1 [D, 5E-6-[3-(3-(2,4-Dichlorphenyl)-1-methylthioureido)-phenyl]-6-(3-pyridyl)-hex-5-ensäure] | 17 | 90 | 1200
